The target of the assay is T1, fungal tyrosinase.
T1 construct: gene PPO3; only 'fungal' printed
Description: L-DOPA oxidation, […] nm. It counts as biochemical. The note with it: L-DOPA substrate, pH 6.8, room temperature.

As for `O=c1cc(CO)occ1O` [Kojic acid], the “Tyrosinase / IC50” value is 23.80 ± 0.25 µg/mL.

(Values after publication PMC12698445, “Phenolic profile of different solvent extracts of Reseda alba L. and evaluation of anti-quorum sensing, antioxidant, and enzyme inhibition activities” (Frontiers in Nutrition, 2025).)
